Data as given in US12077503B2, “Substituted cyclic amides and their use as herbicides” (FMC CORPORATION, priority 2015, dated 2024).
Like-named read-outs stand apart in the source and are kept apart here.

How the values were obtained:
Assay type in all cases: in vivo
[1] = system: pigweed (Amaranthus retroflexus); assay: Test A preemergence; conditions: Amaranthus retroflexus, pre-emergence, 240 h; for pest or weed control at 125 g/ha: 125 g ai/ha, Preemergence, visual injury rating after approximately 10 d, read-out: Pigweed plant response rating (0 to 100 scale, 0 is no effect, 100 is complete control); for pest or weed control at 500 g/ha: 500 g ai/ha, preemergence, visual injury rating about 10 d after treatment, 0 to 100 scale (0 no effect, 100 complete control), read-out: Pigweed plant response rating
[2] = system: Galium (catchweed bedstraw, Galium aparine); assay: Test A postemergence; conditions: Galium, post-emergence, 240 h; for pest or weed control at 125 g/ha: 125 g ai/ha
How it was run: (§1)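 Seeded soil received test chemicals as a preemergence directed spray, and seedlings at one to two leaves, 2–10 cm tall, received them postemergence, in a non-phytotoxic, surfactant-containing solvent mixture. Pots were held in a greenhouse for approximately 10 d, then rated for injury from 0, no effect, to 100, complete control.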

[3] = system: Kochia (Kochia scoparia); assay: Test A postemergence; conditions: Bassia scoparia, post-emergence, 240 h, postemergence, approx. 10 d
How it was run: as §1

[4] = system: barnyardgrass (Echinochloa crus-galli); assay: Test A postemergence; conditions: Echinochloa crus-galli, post-emergence, 240 h; for pest or weed control at 125 g/ha: 125 g ai/ha
How it was run: as §1

[5] = system: corn (Zea mays); assay: Test A postemergence; conditions: Zea mays, post-emergence, 240 h; for Corn plant response rating (crop injury, 0 = no effect, 100 = complete kill) at 125 g/ha: Postemergence, visual injury after approximately 10 d, 0 to 100 scale where 0 is no effect and 100 is complete control
How it was run: as §1

[6] = system: giant foxtail (Setaria faberii); assay: Test A postemergence; conditions: Setaria faberi, post-emergence, 240 h; for pest or weed control at 125 g/ha: 125 g ai/ha
How it was run: as §1

[7] = system: pigweed (Amaranthus retroflexus); assay: Test A postemergence; conditions: Amaranthus retroflexus, post-emergence, 240 h, 125 g ai/ha
How it was run: as §1

[8] = system: ragweed (common ragweed, Ambrosia elatior); assay: Test A postemergence; conditions: Ambrosia artemisiifolia, post-emergence, 240 h, 125 g ai/ha
How it was run: as §1

[9] = system: ryegrass, Italian (Italian ryegrass, Lolium multiflorum); assay: Test A postemergence; conditions: Lolium multiflorum, post-emergence, 240 h, 125 g ai/ha
How it was run: as §1

[10] = system: wheat (Triticum aestivum); assay: Test A postemergence; conditions: Triticum aestivum, post-emergence, 240 h, 125 g ai/ha
How it was run: as §1

[11] = system: barnyardgrass (Echinochloa crus-galli); assay: Test B flooded paddy test; conditions: Echinochloa crus-galli, 250 g ai/ha, Flood, read-out: Barnyardgrass plant response rating
How it was run: (§2)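 Flooding to 3 cm over soil accompanied treatment, which consisted of adding compound to the standing water around 2-leaf plants; depth was then maintained. Visual assessment versus controls followed at 13 to 15 d (scale 0–100, 0 meaning no effect).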

[12] = system: ducksalad (Heteranthera limosa); assay: Test B flooded paddy test; conditions: Heteranthera limosa, 250 g ai/ha, Flood, read-out: Ducksalad plant response rating
How it was run: as §2

[13] = system: rice (Oryra sativa); assay: Test B flooded paddy test; conditions: Oryza sativa, 250 g ai/ha, Flood, read-out: Rice plant response rating
How it was run: as §2

[14] = system: sedge, umbrella (small-flower umbrella sedge, Cyperus difformis); assay: Test B flooded paddy test; conditions: Cyperus difformis, 250 g ai/ha, Flood, read-out: Sedge, Umbrella plant response rating
How it was run: as §2

[15] = system: blackgrass (Alopecurus myosuroides); assay: Test A postemergence; conditions: Alopecurus myosuroides, post-emergence, 240 h, 125 g ai/ha, Postemergence; visual injury after approximately 10 d; 0 to 100 scale where 0 is no effect and 100 is complete control; read-out: Plant response rating, Blackgrass
How it was run: as §1

[16] = 0 to 100 scale where 0 is no effect and 100 is complete control
[17] = Postemergence, visual injury after approximately 10 d, 0 to 100 scale where 0 is no effect and 100 is complete control, read-out: Plant response rating, Galium
[18] = Postemergence, visual injury after approximately 10 d, 0 to 100 scale where 0 is no effect and 100 is complete control, read-out: Plant response rating, Barnyardgrass
[19] = Postemergence, visual injury after approximately 10 d, 0 to 100 scale where 0 is no effect and 100 is complete control, read-out: Plant response rating, Foxtail, Giant
[20] = Postemergence, visual injury after approximately 10 d, 0 to 100 scale where 0 is no effect and 100 is complete control, read-out: Plant response rating, Pigweed
[21] = Postemergence, visual injury after approximately 10 d, 0 to 100 scale where 0 is no effect and 100 is complete control, read-out: Plant response rating, Ragweed
[22] = Postemergence, visual injury after approximately 10 d, 0 to 100 scale where 0 is no effect and 100 is complete control, read-out: Plant response rating, Ryegrass, Italian
[23] = Postemergence, visual injury after approximately 10 d, 0 to 100 scale where 0 is no effect and 100 is complete control, read-out: Plant response rating, Wheat
[24] = scale of 0 to 100 where 0 is no effect and 100 is complete control

With `Cc1cc([C@H]2CNC(=O)[C@@H]2C(=O)Nc2ccccc2Cl)ccc1C(F)(F)F` [Compound 1044] the pest or weed control at 125 g/ha [1] was 0%, the pest or weed control at 500 g/ha [1] was 30% and the pest or weed control at 125 g/ha ([2]; postemergence, visual injury on 0 to 100 scale (0 no effect, 100 complete control), approx. 10 d, read-out: Galium plant response rating) was 40%. For the same compound, the pest or weed control at 500 g/ha ([2]; 500 g ai/ha, postemergence, visual injury, 0 to 100 scale (0 no effect, 100 complete control), approx. 10 d, read-out: Plant response rating, Galium) was 60%, the pest or weed control at 125 g/ha ([3]; 125 g ai/ha, visual injury on 0 to 100 scale (0 no effect, 100 complete control), read-out: Kochia plant response rating) was 0% and the pest or weed control at 500 g/ha ([3]; 500 g ai/ha, visual injury, 0 to 100 scale (0 no effect, 100 complete control), read-out: Plant response rating, Kochia) was 50%. It also gave a pest or weed control at 125 g/ha ([4]; postemergence, visual injury on 0 to 100 scale (0 no effect, 100 complete control), approx. 10 d, read-out: Barnyardgrass plant response rating) of 70%, a pest or weed control at 500 g/ha ([4]; 500 g ai/ha, postemergence, visual injury, 0 to 100 scale (0 no effect, 100 complete control), approx. 10 d, read-out: Plant response rating, Barnyardgrass) of 80% and a plant injury at 125 g/ha ([5]; 125 g ai/ha, postemergence, visual injury on 0 to 100 scale (0 no effect, 100 complete control), approx. 10 d, read-out: Corn plant response rating) of 0%. It also gave a Corn plant response rating (crop injury, 0 = no effect, 100 = complete kill) at 500 g/ha ([5]; 500 g ai/ha, postemergence, visual injury, 0 to 100 scale (0 no effect, 100 complete control), approx. 10 d) of 50%, a pest or weed control at 125 g/ha ([6]; postemergence, visual injury on 0 to 100 scale (0 no effect, 100 complete control), approx. 10 d, read-out: Foxtail, Giant plant response rating) of 60% and a pest or weed control at 500 g/ha ([6]; 500 g ai/ha, postemergence, visual injury, 0 to 100 scale (0 no effect, 100 complete control), approx. 10 d, read-out: Plant response rating, Foxtail, Giant) of 90%. It also gave a pest or weed control at 125 g/ha ([7]; postemergence, visual injury on 0 to 100 scale (0 no effect, 100 complete control), approx. 10 d, read-out: Pigweed plant response rating) of 30%, a pest or weed control at 125 g/ha ([8]; postemergence, visual injury on 0 to 100 scale (0 no effect, 100 complete control), approx. 10 d, read-out: Ragweed plant response rating) of 20% and a pest or weed control at 125 g/ha ([9]; postemergence, visual injury on 0 to 100 scale (0 no effect, 100 complete control), approx. 10 d, read-out: Ryegrass, Italian plant response rating) of 0%. It also gave a plant injury at 125 g/ha ([10]; postemergence, visual injury on 0 to 100 scale (0 no effect, 100 complete control), approx. 10 d, read-out: Wheat plant response rating) of 0%, a pest or weed control at 250 g/ha [11, 16] of 0% and a pest or weed control at 250 g/ha [12, 16] of 0%. For the same compound, the pest or weed control at 250 g/ha [13, 16] was 0% and the pest or weed control at 250 g/ha [14, 16] was 0%.

Work on `CN1C[C@H](c2cc(F)cc(F)c2)[C@@H](C(=O)Nc2cc(O)ccc2F)C1=O` [Compound 992] yielded a pest or weed control at 125 g/ha [1] of 0%, a pest or weed control at 500 g/ha [1] of 0% and a pest or weed control at 125 g/ha [2, 17] of 0%. It also gave a pest or weed control at 125 g/ha [4, 18] of 0%, a pest or weed control at 125 g/ha [15] of 0% and a Corn plant response rating (crop injury, 0 = no effect, 100 = complete kill) at 125 g/ha ([5]; 125 g ai/ha) of 0%. It also gave a pest or weed control at 125 g/ha [6, 19] of 0%, a pest or weed control at 125 g/ha [7, 20] of 0% and a pest or weed control at 125 g/ha [8, 21] of 0%. For the same compound, the pest or weed control at 125 g/ha [9, 22] was 0%, the plant injury at 125 g/ha [10, 23] was 0% and the pest or weed control at 250 g/ha [11, 24] was 0%. For the same compound, the pest or weed control at 250 g/ha [12, 24] was 0%, the pest or weed control at 250 g/ha [13, 24] was 0% and the pest or weed control at 250 g/ha [14, 16] was 0%.

Compound `Cc1ccc([C@H]2CCNC(=O)[C@@H]2C(=O)Nc2cccc(F)c2F)cc1` [Compound 973] has a pest or weed control at 125 g/ha [1] of 0%, a pest or weed control at 500 g/ha [1] of 0% and a pest or weed control at 125 g/ha [2, 17] of 50%. The pest or weed control at 125 g/ha [4, 18] was 30%, the pest or weed control at 125 g/ha [15] was 60% and the Corn plant response rating (crop injury, 0 = no effect, 100 = complete kill) at 125 g/ha ([5]; 125 g ai/ha) was 0%. The pest or weed control at 125 g/ha [6, 19] was 70%, the pest or weed control at 125 g/ha [7, 20] was 0% and the pest or weed control at 125 g/ha [8, 21] was 0%. The pest or weed control at 125 g/ha [9, 22] was 20%, the plant injury at 125 g/ha [10, 23] was 0% and the pest or weed control at 250 g/ha [11, 24] was 0%. It also gave a pest or weed control at 250 g/ha [12, 24] of 100%, a pest or weed control at 250 g/ha [13, 24] of 0% and a pest or weed control at 250 g/ha [14, 24] of 0%.

For `COc1ccc([C@H]2CN(C)C(=O)[C@@H]2C(=O)Nc2ccccc2SC)cc1C(F)(F)F` [Compound 991], the pest or weed control at 125 g/ha [1] was 60%, the pest or weed control at 500 g/ha [1] was 50% and the pest or weed control at 125 g/ha [2, 17] was 0%. The pest or weed control at 125 g/ha [4, 18] was 30%, the pest or weed control at 125 g/ha [15] was 0% and the Corn plant response rating (crop injury, 0 = no effect, 100 = complete kill) at 125 g/ha ([5]; 125 g ai/ha) was 0%. It also gave a pest or weed control at 125 g/ha [6, 19] of 80%, a pest or weed control at 125 g/ha [7, 20] of 0% and a pest or weed control at 125 g/ha [8, 21] of 0%. The pest or weed control at 125 g/ha [9, 22] was 0%, the plant injury at 125 g/ha [10, 23] was 0% and the pest or weed control at 250 g/ha [11, 24] was 0%. The pest or weed control at 250 g/ha [12, 24] was 40%, the pest or weed control at 250 g/ha [13, 24] was 15% and the pest or weed control at 250 g/ha [14, 16] was 0%.
